What was measured:
VEGFA (786-O cells) = experiment: VEGFA ELISA Assay (IC50); format: cell-based; conditions: 24 hours incubation, VEGFA in culture supernatant by ELISA
Method: 786-O cells in exponential growth phase were seeded in 96-well plate, the cell concentration was 65,000 cells per milliliter of culture medium, 180 ul per well. Compounds were serial diluted to the indicated concentration, and 20 ul compound solutions of different concentrations were added to the corresponding cell wells. The final compound concentrations were as follows (nM): 1.5, 4.6, 13.7, 41.2, 123.5, 370.4, 1111.1, 3333.3, 10000. After 24 hours of incubation, the cell culture supernatant was taken, and the VEGFA concentration was determined using an ELISA kit (purchased from abcam). Finally, the reaction was terminated, and the light absorbance value of each well was measured using a microplate reader at a wavelength of […], and IC50 was calculated by GraphPad Prism. Cell Titer-Glo reagent was used to measure cell viability.

[1] = system: HIF2α reporter cells (786-O-HIF2α-Luc cells); experiment: Luciferase Assay (HIF2α reporter cells); format: cell-based; conditions: 18-20 h, Steady-Glo luminescence
Method: Luciferase LUC gene was transfected into 786-O cells (purchased from ATCC) using Lipofectamine 3000 Transfection Reagent (purchased from Invitrogen) to construct HIF2α reporter cells (786-O-HIF2α-Luc cells). Experiments were performed when 786-O-HIF2α-Luc cells were in logarithmic growth phase, culture medium (RPMI MEDIUM 1640, purchased from Invitrogen) was abandoned, the cells were rinsed with PBS three times; trypsin (TrypLE, purchased from invitrogen) was added to digest cells, the digestion was terminated by washing the cells with culture medium, 10% fetal bovine serum, 1% penicillin and streptomycin. The cells were collected by centrifugation, rinsed twice with PBS to remove the phenol red in the medium, and then resuspended the cells to an appropriate concentration, and detected the cell density and viability, and made sure the cell viability is above 90% before it can be used for experiments.
The gradient concentration compound was transferred into 384-well plate, 25 nl/well using Echo 550 (non-contact sonic pipetting system, purchased from Labcyte); the cells were seeded in 384-well plate, 4500 cells/well, with 25 μl of culture medium, to make the final concentrations as follows: 10000, 3333, 1111, 370, 123, 41.1, 13.7, 4.6, 1.5, 0.5 nM. Cells were incubated at 37° C., 5% CO2 for 18-20 h; Steady-Glo™ Luciferase Assay System (purchased from Promega) was added to 384 well-plate, 25 μl/well; the luminescence value was detected with Envision. The % inhibition rate was calculated according to the RLU (Record Luminescence) signal value of each well, and then the IC50 of the corresponding compound was calculated by Graphpad 8.0.

[2] = Homo sapiens, 786-0, 24 h, numeric values
[3] = Homo sapiens, 786-0, 24 h, class symbols

IC50 (VEGFA (786-O cells); [2]) | IC50 (VEGFA (786-O cells); [3]) | IC50 ([1]; class symbols) | Structure (SMILES) | other results
6.2 nM | – | – | O[C@H]1c2c(C(F)(F)F)cn(-c3ccc(F)c(C(F)F)c3)c2CC[C@H]1F (single isomer, unassigned) [Example 104] | IC50 ([1]; numeric values): 22 nM
– | ≤ 500 nM | ≤ 500 nM | N#Cc1cc(-n2cc(C(F)(F)F)c3c2CCC(F)(F)[C@H]3F)ccc1F (single isomer, unassigned) [Example 196] | –
30.7 nM | – | – | OC1c2c(C(F)(F)F)cn(-c3cc(F)cc(Cl)c3)c2CCC1(F)F (stereo not drawn) [Example 7, 1-(3-chloro-5-fluorophenyl)-5,5-difluoro-3-(trifluoromethyl)-4,5,6,7-tetrahydro-1H-indol-4-ol] | IC50 ([1]; numeric values): 57.7 nM
67.5 nM | – | ≤ 500 nM | N#Cc1cc(F)cc(-n2cc(C(F)(F)F)c3c2CCC(F)(F)C3O)c1 (stereo not drawn) [Example 12, 3-(5,5-difluoro-4-hydroxy-3-(trifluoromethyl)-4,5,6,7-tetrahydro-1H-indol-1-yl)-5-fluorobenzonitrile] | –
18.8 nM | – | ≤ 500 nM | OC1c2c(C(F)(F)F)cn(-c3cccc(Cl)c3)c2CCC1(F)F (stereo not drawn) [Example 15, l-(3-chlorophenyl)-5,5-difluoro-3-(trifluoromethyl)-4,5,6,7-tetrahydro-1H-indol-4-ol] | –
– | ≤ 500 nM | ≤ 500 nM | N#Cc1cccc(-n2cc(C(F)(F)F)c3c2CCC(F)(F)C3O)c1 (stereo not drawn) [Example 19, 3-(5,5-difluoro-4-hydroxy-3-(trifluoromethyl)-4,5,6,7-tetrahydro-1H-indol-1-yl)benzonitrile] | –
– | ≤ 500 nM | ≤ 500 nM | OC1c2c(C(F)(F)F)cn(-c3cc(Cl)cc(Cl)c3)c2CCC1(F)F (stereo not drawn) [Example 20, 1-(3,5-dichlorophenyl)-5,5-difluoro-3-(trifluoromethyl)-4,5,6,7-tetrahydro-1H-indol-4-ol] | –
– | ≤ 500 nM | ≤ 500 nM | OC1CCCc2c1c(C(F)(F)F)cn2-c1cc(F)cc(F)c1 (stereo not drawn) [Example 37, 1-(3,5-difluorophenyl)-3-(trifluoromethyl)-4,5,6,7-tetrahydro-1H-indol-4-ol] | –
45.6 nM | – | ≤ 500 nM | O[C@H]1c2c(-c3cccs3)cn(-c3cc(F)cc(Cl)c3)c2CCC1(F)F [Example 48, (S)-1-(3-chloro-5-fluorophenyl)-5,5-difluoro-3-(thiophen-2-yl)-4,5,6,7-tetrahydro-1H-indol-4-ol] | –
– | ≤ 500 nM | ≤ 500 nM | O[C@H]1c2c(C(F)(F)F)cn(-c3cc(F)cc(F)c3)c2CCC1(F)F [Example 64, (S)-1-(3,5-difluorophenyl)-5,5-difluoro-3-(trifluoromethyl)-4,5,6,7-tetrahydro-1H-indol-4-ol] | –
44.2 nM | – | – | N#Cc1cc(-c2cc(C(F)(F)F)c3n2CCC(F)(F)C3O)ccc1F (stereo not drawn) [Example 69, 5-(7,7-difluoro-8-hydroxyl-1-(trifluoromethyl)-5,6,7,8-tetrahydroindolizin-3-yl)-2-fluorobenzonitrile] | IC50 ([1]; numeric values): 67 nM
45.4 nM | – | – | N#Cc1cc(-c2cc(C(F)(F)F)c3n2CCC(F)(F)[C@H]3O)ccc1F [Example 70, (S)-5-(7,7-difluoro-8-hydroxyl-1-(trifluoromethyl)-5,6,7,8-tetrahydroindolizin-3-yl)-2-fluorobenzonitrile] | IC50 ([1]; numeric values): 84.2 nM
– | ≤ 500 nM | ≤ 500 nM | N#Cc1cc(-c2cc(C(F)(F)F)c3n2CCC(F)C3O)ccc1F (stereo not drawn) [Example 75, 2-fluoro-5-(7-fluoro-8-hydroxy-1-(trifluoromethyl)-5,6,7,8-tetrahydroindolizin-3-yl)benzonitrile] | –
– | – | – | N#Cc1cc(-n2cc(C(F)(F)F)c3c2CCC(F)(F)[C@H]3O)ccc1F [Example 95] | IC50 (VEGFA (786-O cells); numeric values): 14.5 nM; IC50 ([1]; numeric values): 37.6 nM
– | ≤ 500 nM | ≤ 500 nM | OC1c2c(C(F)(F)F)c(F)n(-c3cc(F)cc(Cl)c3)c2CCC1(F)F (stereo not drawn) [Example 106, 1-(3-chloro-5-fluorophenyl)-2,5,5-trifluoro-3-(trifluoromethyl)-4,5,6,7-tetrahydro-1H-indol-4-ol] | –
27.7 nM | – | – | O[C@H]1c2c(C(F)(F)F)cn(-c3cc(F)cc(Cl)c3)c2CCC1(F)F [Example 116, (S)-1-(3-chloro-5-fluorophenyl)-5,5-difluoro-3-(trifluoromethyl)-4,5,6,7-tetrahydro-1H-indol-4-ol] | IC50 ([1]; numeric values): 53.2 nM
38.9 nM | – | – | OC1c2c(C(F)(F)F)cn(-c3ccc(F)c(Cl)c3)c2CCC1(F)F (stereo not drawn) [Example 120, 1-(3-chloro-4-fluorophenyl)-5,5-difluoro-3-(trifluoromethyl)-4,5,6,7-tetrahydro-1H-indol-4-ol] | IC50 ([1]; numeric values): 75.7 nM

IC50 (VEGFA (786-O cells); [2]) | IC50 (VEGFA (786-O cells); [3]) | IC50 ([1]; class symbols) | Structure (SMILES) | other results
31 nM | – | – | N#Cc1cc(-n2cc(C(F)(F)F)c3c2CCC(F)(F)C3O)ccc1F (stereo not drawn) [Example 121] | IC50 ([1]; numeric values): 98.5 nM
– | ≤ 500 nM | – | OC1c2c(C(F)(F)F)cn(-c3cc(F)cc(Cl)c3)c2CCC1F (stereo not drawn) [Example 142, 1-(3-chloro-5-fluorophenyl)-5-fluoro-3-(trifluoromethyl)-4,5,6,7-tetrahydro-1H-indol-4-ol] | –
– | 1500 to 10000 nM | – | OC1c2c(-c3ccccc3)cn(-c3cc(F)cc(Cl)c3)c2CCC1(F)F (stereo not drawn) [Example 145] | –
– | ≤ 500 nM | – | N#Cc1cc(Cl)cc(-n2cc(C(F)(F)F)c3c2CCC(F)(F)C3O)c1 (stereo not drawn) [Example 154, 3-chloro-5-(5,5-difluoro-4-hydroxy-3-(trifluoromethyl)-4,5,6,7-tetrahydro-1H-indol-1-yl)benzonitrile] | –
46.1 nM | – | – | OC1c2c(C(F)(F)F)cn(-c3ccc(F)cc3)c2CCC1(F)F (stereo not drawn) [Example 160, 5,5-difluoro-1-(4-fluorophenyl)-3-(trifluoromethyl)-4,5,6,7-tetrahydro-1H-indol-4-ol] | –
– | ≤ 500 nM | – | OC1c2c(C(F)(F)F)cn(-c3ccc(F)c(F)c3)c2CCC1(F)F (stereo not drawn) [Example 164] | –
– | 500 to 1500 nM | – | OC1c2c(C(F)(F)F)cn(-c3ccc(F)nc3)c2CCC1(F)F (stereo not drawn) [Example 170] | –
– | 500 to 1500 nM | – | O[C@@H]1c2c(C(F)(F)F)cn(-c3ccc(F)c(C(F)F)c3)c2CCC1(F)F [Example 174, (R)-1-(3-(difluoromethyl)-4-fluorophenyl)-5,5-difluoro-3-(trifluoromethyl)-4,5,6,7-tetrahydro-1H-indol-4-ol] | –
– | ≤ 500 nM | – | N#CC1c2c(C(F)(F)F)cn(-c3ccc(F)cc3)c2CCC1(F)F (stereo not drawn) [Example 178, 5,5-difluoro-1-(4-fluorophenyl)-3-(trifluoromethyl)-4,5,6,7-tetrahydro-1H-indole-4-carbonitrile] | –
– | 500 to 1500 nM | – | CC1Cc2c(c(C(F)(F)F)cn2-c2ccc(F)c(C#N)c2)C(O)C1(F)F (stereo not drawn) [Example 179, 5-(5,5-difluoro-4-hydroxy-6-methyl-3-(trifluoromethyl)-4,5,6,7-tetrahydro-1H-indol-1-yl)-2-fluorobenzonitrile] | –
– | 500 to 1500 nM | – | CC1Cc2c(c(C(F)(F)F)cn2-c2ccc(F)c(C#N)c2)[C@H](O)C1(F)F (stereo partly drawn) [Example 180] | –
– | 1500 to 10000 nM | – | OC1c2c(C(F)(F)F)cn(/C=C/c3ccccc3)c2CCC1(F)F (stereo not drawn) [Example 181, (E)-5,5-difluoro-1-styryl-3-(trifluoromethyl)-4,5,6,7-tetrahydro-1H-indol-4-ol] | –
– | 500 to 1500 nM | – | O=C1c2c(C(F)(F)F)cn(-c3ccc(F)c(C(F)F)c3)c2CCC1(F)F [Example 190, 1-(3-(difluoromethyl)-4-fluorophenyl)-5,5-difluoro-3-(trifluoromethyl)-1,5,6,7-tetrahydro-4H-indol-4-one] | –
– | ≤ 500 nM | – | CS(=O)(=O)c1cn(-c2cc(F)cc(C#N)c2)c2c1C(O)C(F)CC2 (stereo not drawn) [Example 193, 3-fluoro-5-(5-fluoro-4-hydroxy-3-(methylsulfonyl)-4,5,6,7-tetrahydro-1H-indol-1-yl)benzonitrile] | –
– | – | – | Fc1cc(Cl)cc(-n2cc(C(F)(F)F)c3c2CCc2cnoc2-3)c1 [Example 201, 6-(3-chloro-5-fluorophenyl)-8-(trifluoromethyl)-5,6-dihydro-4-H-isoxazolo[5,4-e]indole] | IC50 (VEGFA (786-O cells); class symbols): > 1500 nM
– | > 1500 nM | – | Fc1cc(Cl)cc(-n2cc(C(F)(F)F)c3c2CCc2cn[nH]c2-3)c1 [Example 202, 6-(3-chloro-5-fluorophenyl)-8-(trifluoromethyl)-1,4,5,6-tetrahydropyrrolo-[2,3-g]indazole] | –

Reference: patent US20230219890A1, “BICYCLIC COMPOUNDS AND USE THEREOF” (Betta Pharmaceuticals Co.,Ltd, priority 2020, published 2023)
